Reference: patent US8778982B2, “Synergistic microbicidal compositions” (Rohm and Haas Company, priority 2007, dated 2014)

How the values were obtained:
Format in all cases: cell-based
Details in all cases: for SI / Qa: A = MIT; for Qa: A alone where Qb = 0
[1] = tested on: Aspergillus niger (A. niger—ATCC 16404); assay: Synergy test, microtiter plate high resolution MIC assay, PDB medium, mold
Source text: (§1) One measure of synergism is the industrially accepted method described by Kull, F. C.; Eisman, P. C.; Sylwestrowicz, H. D. and Mayer, R. L., in Applied Microbiology 9:538-541 (1961), using the ratio determined by the formula: Qa/QA+Qb/QB=Synergy Index(“SI”) wherein: • QA=concentration of compound A (first component) in ppm, acting alone, which produced an end point (MIC of Compound A). • Qa=concentration of compound A in ppm, in the mixture, which produced an end point. • QB=concentration of compound B (second component) in ppm, acting alone, which produced an end point (MIC of Compound B). • Qb=concentration of compound B in ppm, in the mixture, which produced an end point.
(§2) When the sum of Qa/QA and Qb/QB is greater than one, antagonism is indicated. […] The lower the SI, the greater is the synergy shown by that particular mixture. The minimum inhibitory concentration (MIC) of a microbicide is the lowest concentration tested under a specific set of conditions that prevents the growth of the tested microorganisms.
(§3) Synergy tests were conducted using standard microtiter plate assays with media designed for optimal growth of the test microorganism. Minimal salt medium supplemented with 0.2% glucose and 0.1% yeast extract (M9GY medium) was used for testing bacteria; Potato Dextrose Broth (PDB medium) was used for testing yeast and mold. In this method, a wide range of combinations of microbicides and other personal care raw materials was tested by conducting high resolution MIC assays in the presence of various concentrations of CMIT/MIT, MIT, or BIT. High resolution MICs were determined by adding varying amounts of microbicide to one column of a microtitre plate and doing subsequent […] dilutions using an automated liquid handling system to obtain a series of endpoints ranging from 2 ppm to 10,000 ppm active ingredient.
(§4) The synergy of the combinations of the present invention was determined against a bacterium, Escherichia coli (E. coli—ATCC #8739), a yeast, Candida albicans (C. albicans—ATCC 10231), and a mold, Aspergillus niger (A. niger—ATCC 16404). The bacteria were used at a concentration of about 5×10^6 bacteria per mL and the yeast and mold at 5×10^5 fungi per mL. These microorganisms are representative of natural contaminants in many consumer and industrial applications. […] (yeast and mold) or 30° C. (bacteria).

[2] = tested on: Candida albicans (C. albicans—ATCC 10231); assay: Synergy test, microtiter plate high resolution MIC assay, PDB medium, yeast
Source text: as §1, §2, §3, §4

[3] = tested on: Escherichia coli (E. coli—ATCC #8739); assay: Synergy test, microtiter plate high resolution MIC assay, M9GY medium, bacterium
Source text: as §1, §2, §3, §4

[4] = A. niger 16404 - PDB (3 days), B = Myristamidopropyl PG-dimonium chloride phosphate
[5] = A. niger 16404 - PDB (3 days), B = Propylene glycol caprylate
[6] = A. niger 16404 - PDB (10 days), B = Ethylhexylglycerin
[7] = A. niger 16404 - PDB (10 days), B = Glyceryl caprate
[8] = A. niger 16404 - PDB (10 days), B = Glyceryl mono dicaprylate
[9] = A. niger 16404 - PDB (10 days), B = Lauric arginate
[10] = A. niger 16404 - PDB (10 days), B = Propylene glycol monolaurate
[11] = C. albicans 10231 - PDB (1 day), B = Propylene glycol monolaurate
[12] = C. albicans 10231 - PDB (2 days), B = Glyceryl mono dicaprylate
[13] = C. albicans 10231 - PDB (6 days), B = Ethylhexylglycerin
[14] = C. albicans 10231 - PDB (6 days), B = Glyceryl caprate
[15] = C. albicans 10231 - PDB (6 days), B = Lauric arginate
[16] = C. albicans 10231 - PDB (6 days), B = Myristamidopropyl PG-dimonium chloride phosphate
[17] = C. albicans 10231 - PDB (6 days), B = Propylene glycol caprylate
[18] = E. coli 8739 - M9GY (1 day), B = Glyceryl caprate
[19] = E. coli 8739 - M9GY (1 day), B = Glyceryl mono dicaprylate
[20] = E. coli 8739 - M9GY (1 day), B = Lauric arginate
[21] = E. coli 8739 - M9GY (1 day), B = Myristamidopropyl PG-dimonium chloride phosphate
[22] = E. coli 8739 - M9GY (1 day), B = Propylene glycol caprylate
[23] = E. coli 8739 - M9GY (1 day), B = Propylene glycol monolaurate
[24] = E. coli 8739 - M9GY (6 days), B = Ethylhexylglycerin

Cn1sccc1=O [MIT, 2-methyl-4-isothiazolin-3-one]
200.00 ppm: MIC of the component acting alone (QA or QB) ([2]; C. albicans 10231, PDB, 6 days, 25° C.) | Qa [2, 13] | Qa [2, 14] | Qa [2, 15] | Qa [2, 16] | Qa [2, 17]
500 ppm: Qa [1, 7] | Qa [1, 8]
1.00: Synergy Index (SI) = Qa/QA+Qb/QB ([1]; A. niger 16404, PDB, 10 days) | SI [1, 4] | SI [1, 5] | SI [1, 6] | SI [1, 7] | SI [1, 8] | SI [1, 9] | SI [1, 10] | Synergy Index (SI) = Qa/QA+Qb/QB ([2]; C. albicans 10231, PDB, 6 days) | SI [2, 11] | SI [2, 12] | SI [2, 13] | SI [2, 14] | SI [2, 15] | SI [2, 16] | SI [2, 17] | Synergy Index (SI) = Qa/QA+Qb/QB ([3]; E. coli 8739, M9GY, 1 day) | SI [3, 18] | SI [3, 19] | SI [3, 20] | SI [3, 21] | SI [3, 22] | SI [3, 23] | SI [3, 24]
500 µg/mL: MIC ([1]; Aspergillus niger, ATCC16404, 240 h, read-out: MIC of the component acting alone (QA or QB))
200 µg/mL: MIC ([2]; Candida albicans, ATCC10231, 144 h, read-out: MIC of the component acting alone (QA or QB))
500.00 ppm: MIC of the component acting alone (QA or QB) ([1]; A. niger 16404, PDB, 10 days, 25° C.)
400 ppm: Qa [1, 4] | Qa [1, 5]
40.00 ppm: Qa [3, 24]
750 ppm: Qa [1, 6] | Qa [1, 9]
100.00 ppm: Qa [2, 11]
30 µg/mL: MIC ([3]; Escherichia coli, ATCC8739, 24 h, read-out: MIC of the component acting alone (QA or QB))
30.00 ppm: MIC of the component acting alone (QA or QB) ([3]; E. coli 8739, M9GY, 1 day, 30° C.) | Qa [3, 18] | Qa [3, 19] | Qa [3, 20] | Qa [3, 21] | Qa [3, 22] | Qa [3, 23]
150.00 ppm: Qa [2, 12]
750.00 ppm: Qa [1, 10]
